The numbers were not newly measured in patent publication US20230346989A1, “FLUOROCARBON NANOEMULSIONS AND USES THEREOF IN IMAGING” (The Regents of the University of California, priority 2020, published 2023), which cites them from elsewhere.

For series [1], the system named is tumors. Particulars: depending on the model; cited from earlier work.
For series [2] the following is noted: in vivo; cited from earlier work.

Take `C[C@H](NC(=O)c1c(N)nn2cccnc12)c1cc2cccc(C#Cc3cnn(C)c3)c2c(=O)n1-c1ccccc1` [IPI549]: in series [1], the “suppression of tumor growth” value is reported as 50-100%.

With `FC(F)(F)C(F)(F)C(F)(F)C(F)(F)C(F)(F)C(F)(F)C(F)(F)C(F)(F)Br` [PFOB, perfluorooctyl bromide], the organ-retention half-life in series [2] is 122 h.
